Measured values from ChEMBL document CHEMBL5131407, “Design, synthesis and activity evaluation of prodrug form JBP485 and Vitamin E for alleviation of NASH” (Bioorg Med Chem Lett, 2022).
Calls of active or inactive are those of the source.

Tests used:
Assay type in all cases: functional, organism-based
Mus musculus [1] = assay: Anti-NASH activity in CCl4-induced nonalcoholic steatohepatitis C57BL mouse assessed as reduction in total cholesterol level at 100 mg/kg administered for 14 days; details: time 14.0 day
Mus musculus [2] = assay: Anti-NASH activity in CCl4-induced nonalcoholic steatohepatitis C57BL mouse assessed as decrease in IL-17A expression at 30 mg/kg checked in presence of vitamin E by flow cytometry; details: time 14.0 day
Mus musculus [3] = assay: Anti-NASH activity in CCl4-induced nonalcoholic steatohepatitis C57BL mouse assessed as reduction in liver lobular inflammation at 30 to 100 mg/kg checked in presence of vitamin E by H and E staining based assay; details: dose 30-100 mg/kg
Mus musculus [4] = assay: Anti-NASH activity in CCl4-induced nonalcoholic steatohepatitis C57BL mouse assessed as reduction in liver index at 100 mg/kg
Mus musculus [5] = assay: Anti-NASH activity in CCl4-induced nonalcoholic steatohepatitis C57BL mouse assessed as reduction in liver fibrosis at 100 mg/kg by sirius red staining based assay
Mus musculus [6] = assay: Anti-NASH activity in CCl4-induced nonalcoholic steatohepatitis C57BL mouse assessed as reduction in liver fibrosis at 30 to 100 mg/kg checked in presence of vitamin E by sirius red staining based assay; details: dose 30-100 mg/kg
Mus musculus [7] = assay: Anti-NASH activity in CCl4-induced nonalcoholic steatohepatitis C57BL mouse assessed as reduction in liver index at 30 to 100 mg/kg checked in presence of 60 mg/kg vitamin E; details: dose 30-100 mg/kg
Mus musculus [8] = assay: Anti-NASH activity in CCl4-induced nonalcoholic steatohepatitis C57BL mouse assessed as reduction in liver ballooning degeneration at 30 to 100 mg/kg checked in presence of vitamin E by H and E staining based assay; details: dose 30-100 mg/kg
Mus musculus [9] = assay: Anti-NASH activity in CCl4-induced nonalcoholic steatohepatitis C57BL mouse assessed as reduction in malondialdehyde level at 30 mg/kg checked in presence of vitamin E
Mus musculus [10] = assay: Anti-NASH activity in CCl4-induced nonalcoholic steatohepatitis C57BL mouse assessed as decrease in IFN expression at 100 mg/kg checked in presence of vitamin E by flow cytometry; details: time 14.0 day
Mus musculus [11] = assay: Anti-NASH activity in CCl4-induced nonalcoholic steatohepatitis C57BL mouse assessed as reduction in serum ALT level at 30 to 100 mg/kg checked in presence of vitamin E; details: dose 30-100 mg/kg
Mus musculus [12] = assay: Anti-NASH activity in CCl4-induced nonalcoholic steatohepatitis C57BL mouse assessed as reduction in LDH level at 100 mg/kg checked in presence of vitamin E
Mus musculus [13] = assay: Anti-NASH activity in CCl4-induced nonalcoholic steatohepatitis C57BL mouse at 30 to 100 mg/kg checked in presence of vitamin E by Oil red-O staining based assay; details: dose 30-100 mg/kg
Mus musculus [14] = assay: Anti-NASH activity in CCl4-induced nonalcoholic steatohepatitis C57BL mouse assessed as reduction in liver ballooning degeneration at 100 mg/kg by H and E staining based assay
Mus musculus [15] = assay: Anti-NASH activity in CCl4-induced nonalcoholic steatohepatitis C57BL mouse assessed as reduction in steatosis at 100 mg/kg by H and E staining based assay
Mus musculus [16] = assay: Anti-NASH activity in CCl4-induced nonalcoholic steatohepatitis C57BL mouse assessed as decrease in IL-2 expression at 30 mg/kg checked in presence of vitamin E by flow cytometry; details: time 14.0 day
Mus musculus [17] = assay: Anti-NASH activity in CCl4-induced nonalcoholic steatohepatitis C57BL mouse assessed as reduction in malondialdehyde level at 100 mg/kg administered for 14 days; details: time 14.0 day
Mus musculus [18] = assay: Anti-NASH activity in CCl4-induced nonalcoholic steatohepatitis C57BL mouse assessed as reduction in triglyceride level at 30 mg/kg checked in presence of vitamin E
Mus musculus [19] = assay: Anti-NASH activity in CCl4-induced nonalcoholic steatohepatitis C57BL mouse assessed as reduction in triglyceride level at 100 mg/kg administered for 14 days; details: time 14.0 day
Mus musculus [20] = assay: Anti-NASH activity in CCl4-induced nonalcoholic steatohepatitis C57BL mouse assessed as reduction in steatosis at 30 to 100 mg/kg checked in presence of vitamin E by H and E staining based assay; details: dose 30-100 mg/kg
Mus musculus [21] = assay: Anti-NASH activity in CCl4-induced nonalcoholic steatohepatitis C57BL mouse assessed as reduction in liver lobular inflammation at 100 mg/kg by H and E staining based assay
Mus musculus [22] = assay: Anti-NASH activity in CCl4-induced nonalcoholic steatohepatitis C57BL mouse at 100 mg/kg by Oil red-O staining based assay
Mus musculus [23] = assay: Anti-NASH activity in CCl4-induced nonalcoholic steatohepatitis C57BL mouse assessed as reduction in serum AST level at 30 to 100 mg/kg checked in presence of vitamin E; details: dose 30-100 mg/kg
Mus musculus [24] = assay: Anti-NASH activity in CCl4-induced nonalcoholic steatohepatitis C57BL mouse assessed as reduction in total cholesterol level at 30 mg/kg checked in presence of vitamin E
Mus musculus [25] = assay: Anti-NASH activity in CCl4-induced nonalcoholic steatohepatitis C57BL mouse assessed as reduction in steatosis at 60 mg/kg by H and E staining based assay
Mus musculus [26] = assay: Anti-NASH activity in CCl4-induced nonalcoholic steatohepatitis C57BL mouse assessed as reduction in total cholesterol level at 60 mg/kg checked in presence of JBP485
Mus musculus [27] = assay: Anti-NASH activity in CCl4-induced nonalcoholic steatohepatitis C57BL mouse assessed as reduction in serum AST level at 60 mg/kg checked in presence of 30 to 100 mg/kg JBP485
Mus musculus [28] = assay: Anti-NASH activity in CCl4-induced nonalcoholic steatohepatitis C57BL mouse assessed as reduction in triglyceride level at 60 mg/kg
Mus musculus [29] = assay: Anti-NASH activity in CCl4-induced nonalcoholic steatohepatitis C57BL mouse assessed as reduction in liver ballooning degeneration at 60 mg/kg by H and E staining based assay
Mus musculus [30] = assay: Anti-NASH activity in CCl4-induced nonalcoholic steatohepatitis C57BL mouse assessed as reduction in liver fibrosis at 60 mg/kg by sirius red staining based assay
Mus musculus [31] = assay: Anti-NASH activity in CCl4-induced nonalcoholic steatohepatitis C57BL mouse assessed as reduction in liver ballooning degeneration at 60 mg/kg checked in presence of 30 to 100 mg/kg JBP485 by H and E staining based assay
Mus musculus [32] = assay: Anti-NASH activity in CCl4-induced nonalcoholic steatohepatitis C57BL mouse assessed as reduction in liver fibrosis at 60 mg/kg checked in presence of 30 to 100 mg/kg JBP485 by sirius red staining based assay
Mus musculus [33] = assay: Anti-NASH activity in CCl4-induced nonalcoholic steatohepatitis C57BL mouse at 60 mg/kg checked in presence of 30 to 100 mg/kg JBP485 by Oil red-O staining based assay
Mus musculus [34] = assay: Anti-NASH activity in CCl4-induced nonalcoholic steatohepatitis C57BL mouse assessed as reduction in LDH level at 60 mg/kg checked in presence of JBP485
Mus musculus [35] = assay: Anti-NASH activity in CCl4-induced nonalcoholic steatohepatitis C57BL mouse assessed as decrease in IL-2 expression at 60 mg/kg checked in presence of JBP485 by flow cytometry; details: time 14.0 day
Mus musculus [36] = assay: Anti-NASH activity in CCl4-induced nonalcoholic steatohepatitis C57BL mouse assessed as reduction in malondialdehyde level at 60 mg/kg
Mus musculus [37] = assay: Anti-NASH activity in CCl4-induced nonalcoholic steatohepatitis C57BL mouse assessed as reduction in liver lobular inflammation at 60 mg/kg by H and E staining based assay
Mus musculus [38] = assay: Anti-NASH activity in CCl4-induced nonalcoholic steatohepatitis C57BL mouse assessed as decrease in IFN expression at 60 mg/kg checked in presence of JBP485 by flow cytometry; details: time 14.0 day
Mus musculus [39] = assay: Anti-NASH activity in CCl4-induced nonalcoholic steatohepatitis C57BL mouse assessed as decrease in IL-17A expression at 60 mg/kg checked in presence of JBP485 by flow cytometry; details: time 14.0 day
Mus musculus [40] = assay: Anti-NASH activity in CCl4-induced nonalcoholic steatohepatitis C57BL mouse assessed as reduction in triglyceride level at 60 mg/kg checked in presence of JBP485
Mus musculus [41] = assay: Anti-NASH activity in CCl4-induced nonalcoholic steatohepatitis C57BL mouse assessed as reduction in steatosis at 60 mg/kg checked in presence of 30 to 100 mg/kg JBP485 by H and E staining based assay
Mus musculus [42] = assay: Anti-NASH activity in CCl4-induced nonalcoholic steatohepatitis C57BL mouse assessed as reduction in liver index at 60 mg/kg checked in presence of 30 to 100 mg/kg JBP485
Mus musculus [43] = assay: Anti-NASH activity in CCl4-induced nonalcoholic steatohepatitis C57BL mouse assessed as reduction in total cholesterol level at 60 mg/kg
Mus musculus [44] = assay: Anti-NASH activity in CCl4-induced nonalcoholic steatohepatitis C57BL mouse assessed as reduction in serum ALT level at 60 mg/kg checked in presence of 30 to 100 mg/kg JBP485
Mus musculus [45] = assay: Anti-NASH activity in CCl4-induced nonalcoholic steatohepatitis C57BL mouse assessed as reduction in malondialdehyde level at 60 mg/kg checked in presence of JBP485
Mus musculus [46] = assay: Anti-NASH activity in CCl4-induced nonalcoholic steatohepatitis C57BL mouse assessed as reduction in liver index at 60 mg/kg
Mus musculus [47] = assay: Anti-NASH activity in CCl4-induced nonalcoholic steatohepatitis C57BL mouse assessed as reduction in liver lobular inflammation at 60 mg/kg checked in presence of 30 to 100 mg/kg JBP485 by H and E staining based assay
Mus musculus [48] = assay: Anti-NASH activity in CCl4-induced nonalcoholic steatohepatitis C57BL mouse at 60 mg/kg by Oil red-O staining based assay
Mus musculus [49] = assay: Anti-NASH activity in CCl4-induced nonalcoholic steatohepatitis C57BL mouse assessed as decrease in IL-2 expression at 100 mg/kg by flow cytometry; details: time 14.0 day
Mus musculus [50] = assay: Anti-NASH activity in CCl4-induced nonalcoholic steatohepatitis C57BL mouse assessed as decrease in IFN expression at 100 mg/kg by flow cytometry; details: time 14.0 day
Mus musculus [51] = assay: Anti-NASH activity in CCl4-induced nonalcoholic steatohepatitis C57BL mouse assessed as decrease in IL-17A expression at 100 mg/kg by flow cytometry; details: time 14.0 day
Mus musculus [52] = assay: Anti-NASH activity in CCl4-induced nonalcoholic steatohepatitis C57BL mouse assessed as reduction in HYP content in liver at 100 mg/kg administered for 14 days; details: time 14.0 day
Mus musculus [53] = assay: Anti-NASH activity in CCl4-induced nonalcoholic steatohepatitis C57BL mouse assessed as reduction in LDH level at 100 mg/kg
Mus musculus [54] = assay: Anti-NASH activity in CCl4-induced nonalcoholic steatohepatitis C57BL mouse assessed as reduction in serum ALT level at 100 mg/kg
Mus musculus [55] = assay: Anti-NASH activity in CCl4-induced nonalcoholic steatohepatitis C57BL mouse assessed as reduction in serum AST level at 100 mg/kg

Measured: Activity

O=C1N[C@@H](CO)C(=O)N2C[C@H](O)C[C@@H]12
active: Mus musculus [1] | Mus musculus [2] | Mus musculus [3] | Mus musculus [4] | Mus musculus [5] | Mus musculus [6] | Mus musculus [7] | Mus musculus [8] | Mus musculus [9] | Mus musculus [10] | Mus musculus [11] | Mus musculus [12] | Mus musculus [13] | Mus musculus [14] | Mus musculus [15] | Mus musculus [16] | Mus musculus [17] | Mus musculus [18] | Mus musculus [19] | Mus musculus [20] | Mus musculus [21] | Mus musculus [22] | Mus musculus [23] | Mus musculus [24]

VITAMIN E
active: Mus musculus [25] | Mus musculus [26] | Mus musculus [27] | Mus musculus [28] | Mus musculus [29] | Mus musculus [30] | Mus musculus [31] | Mus musculus [32] | Mus musculus [33] | Mus musculus [34] | Mus musculus [35] | Mus musculus [36] | Mus musculus [37] | Mus musculus [38] | Mus musculus [39] | Mus musculus [40] | Mus musculus [41] | Mus musculus [42] | Mus musculus [43] | Mus musculus [44] | Mus musculus [45] | Mus musculus [46] | Mus musculus [47] | Mus musculus [48]

Cc1c(C)c2c(c(C)c1OC(=O)CCC(=O)O[C@@H]1C[C@H]3C(=O)N[C@@H](CO)C(=O)N3C1)CC[C@@](C)(CCC[C@H](C)CCC[C@H](C)CCCC(C)C)O2
active: Mus musculus [1] | Mus musculus [49] | Mus musculus [4] | Mus musculus [50] | Mus musculus [5] | Mus musculus [51] | Mus musculus [52] | Mus musculus [53] | Mus musculus [14] | Mus musculus [15] | Mus musculus [54] | Mus musculus [17] | Mus musculus [55] | Mus musculus [19] | Mus musculus [21] | Mus musculus [22]
